# Test results from BindingDB's records for doi:10.1016/j.bmcl.2003.11.033 (University of California, 2004).
# Target: Tyrosinase (Agaricus bisporus)
# Test: Inhibitory activity was evaluated against the oxidation of L-3,4-dihydroxyphenylalanine (L-DOPA) catalyzed by mushroom tyrosinase
compound,measurement,value
COc1ccc(C=O)c(O)c1 [2-hydroxy-4-methoxybenzaldehyde],IC50,30 µM
